In article PMC11078216, “Discovery of potent and selective activity-based probes (ABPs) for the deubiquitinating enzyme USP30” (RSC Chemical Biology, 2024):
Values belong to the compound of their own block, whether it stands above or below them.

Legend:
Experiment in all cases: ABPP chemical proteomics (LC-MS/MS) in HEK293T cells
Type in all cases: cell-based
RPL34 = target: T1, RPL34 (Homo sapiens, UniProt P49207); conditions: compound 1 out-competition with IMP-2587 labelling, HEK293T (Table S3, Fig.5b)
T1 construct: endogenous in cells; host or cells: HEK293T
In short: (§1)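 Proteome-wide selectivity was profiled by competitive ABPP. Cells received […] and then activity-based probe for 1 h at 37 °C. Lysates were ligated to biotin capture tags, affinity-enriched and analysed by mass spectrometry.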

RPL23A = target: T2, RPL23A (Homo sapiens, UniProt P62750); conditions: IMP-2586 labelling vs DMSO, 30 nM, 10 min, HEK293T (Table S4, Fig.5c)
T2 construct: endogenous in cells; host or cells: HEK293T
In short: as §1

RER1 = target: T3, RER1 (Homo sapiens, UniProt O15258); conditions: IMP-2586 labelling vs DMSO, 30 nM, 10 min, HEK293T (Table S4, Fig.5c)
T3 construct: endogenous in cells; host or cells: HEK293T
In short: as §1

NUB1 = target: T4, NUB1 (Homo sapiens, UniProt Q9Y5A7); conditions: compound 3 out-competition with IMP-2586 labelling, HEK293T (Table S5, Fig.5d)
T4 construct: endogenous in cells; host or cells: HEK293T
In short: as §1

T4 sequence (Q9Y5A7 whole entry): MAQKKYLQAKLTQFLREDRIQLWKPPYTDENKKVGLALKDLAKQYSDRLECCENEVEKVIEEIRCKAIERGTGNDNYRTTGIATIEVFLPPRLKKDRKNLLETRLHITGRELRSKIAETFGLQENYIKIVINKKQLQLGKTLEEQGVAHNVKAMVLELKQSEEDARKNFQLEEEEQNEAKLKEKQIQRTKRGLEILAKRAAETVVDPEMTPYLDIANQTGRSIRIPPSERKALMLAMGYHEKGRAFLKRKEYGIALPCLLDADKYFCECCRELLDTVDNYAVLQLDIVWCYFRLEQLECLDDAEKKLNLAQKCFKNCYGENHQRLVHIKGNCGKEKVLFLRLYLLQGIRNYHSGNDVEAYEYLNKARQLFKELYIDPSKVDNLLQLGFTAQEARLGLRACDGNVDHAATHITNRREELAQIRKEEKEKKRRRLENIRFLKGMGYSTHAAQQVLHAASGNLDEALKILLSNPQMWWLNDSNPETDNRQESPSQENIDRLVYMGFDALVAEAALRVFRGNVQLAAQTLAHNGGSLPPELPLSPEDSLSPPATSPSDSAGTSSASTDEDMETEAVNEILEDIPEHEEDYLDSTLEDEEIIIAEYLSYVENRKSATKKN
T3 sequence (O15258 whole entry): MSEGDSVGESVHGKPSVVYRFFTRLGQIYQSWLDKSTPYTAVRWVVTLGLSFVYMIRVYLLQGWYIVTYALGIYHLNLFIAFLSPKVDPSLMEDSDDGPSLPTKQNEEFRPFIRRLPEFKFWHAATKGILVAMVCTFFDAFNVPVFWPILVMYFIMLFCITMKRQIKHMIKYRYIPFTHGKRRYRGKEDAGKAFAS

Difference (log2 fold change of enrichment) (RPL34): -0.67
SMILES: N#CN1CC[C@H](CC(=O)Nc2cc(-c3cccc(Cl)c3)no2)C1 [compound 1, reference compound]

SMILES: N#CN1CC[C@@H](NC(=O)c2cc(-c3ccccc3Oc3ccc(N=[N+]=[N-])cc3)n[nH]2)C1 [IMP-2586]
Difference (log2 fold change of enrichment) (RPL23A): -0.57 | Difference (log2 fold change of enrichment) (RER1): -1.34

Difference (log2 fold change of enrichment) (NUB1): -0.38
SMILES: N#CN1CC[C@@H](NC(=O)c2cc(-c3ccccc3Oc3ccccc3)n[nH]2)C1 [compound 3, reference compound]
